Assays:
CYP2E1 = CYP2E1 (Homo sapiens, UniProt P05181); assay: CYP2E1 inhibitory activity assay in human liver microsomes (CZX to 6-OH-CZX)
Procedure: After addition of the test sample, the amount of CYP450 isozyme metabolite standard 6-OH-CZX (6-Hydroxy-Chlorzoxazone) is specific used for calculation of the CYP450 isozyme (CYP2E1) inhibition ratio of the test sample by using the amount of 6-OH-CZX of the control group as the baseline.
All samples were tested in triplicate. To determine the percentage inhibition, each test compound was dissolved in 1, 2, 4 μg/mL to three different concentrations. The CYP2E1 activity levels in the presence of the test compounds were compared with the control incubations. The 500-μL reaction mixture, containing 0.5 mg of microsomal protein, was incubated with 320 μM CZX in the presence of 5 mM MgCl2 and 1 mM NADPH in 50 mM phosphate buffer with pH 7.4 at 37° C. for 30 min. The reaction was terminated by ice-cold acetonitrile, and then 4-hydroxyl tolbutamide was added as an internal standard. The organic phase was evaporated to dryness and reconstituted into the mobile phase (methanol:water=1:1) prior to liquid chromatography-tandem mass spectrometry (LC-MS/MS) analysis. An API 3000 triple-quadrupole mass spectrometer equipped with an ion-spray (ESI) source was used to determine 6-OH-CZX in the human liver microsomes. The ESI interface was used in the positive-ion mode. The 6-OH-CZX was monitored at a transition of m/z 284.5→185.9.
The CYP450 isozyme activity levels in the presence of the test compounds were compared with the control incubations.

[1] = test system: Liver Injuries Induced by APAP; assay: Liver injuries induced by APAP in rats (GSP, AST/ALT, HAI, survival); type: in vivo, SD (Sprague-Dawley) rats; conditions: APAP 2,000 mg/kg; for histological analysis of liver tissue, H&E: FIG. 4
Procedure: Male SD (Sprague-Dawley) rats weighing 175-280 g were purchased from the National Laboratory Animal Center (NLAC), Taiwan. The study was conducted in accordance with the Guidelines for Conducting Animal Studies of the National Health Research Institute and all rats were placed in the air/humidity controlled environment under the 12 hours of day/12 hours of night cycle and with unlimited water and food supply. During the course of the study, the weights of rats were monitored continuously with normal water supply.
In the normal control (Group 1), animals were not fed with APAP. In the control group of APAP-induced liver injuries (Group 2), animals were fed with a single dose of APAP in the amount of 2,000 mg per kilogram of body weight to induce hepatotoxicity. In the positive control group of treatment with NAC (Group 3), animals were fed with a single dose of APAP in the amount of 2,000 mg per kilogram of body weight to induce hepatotoxicity, and 4 hours later, a 24-hour treatment period by tube feeding was started, including first administration of 140 mg of NAC (per kilogram of body weight) and later administration of 70 mg of NAC (per kilogram of body weight) every 4 hours for five times. In the experimental group (Group 4), animals were fed with a single dose of APAP in the amount of 2,000 mg per kilogram of body weight to induce hepatotoxicity, and 4 hours later, a 24-hour treatment period by tube feeding was started, including six dosing with the ingredients of the present invention every 4 hours, as follows: • (a) (Group 4.1): administration of mannitol at a dose less than or equivalent to 100 mg per person every 4 hours for 24 hours, • (b) (Group 4.2): administration of double dose of mannitol as in Group 4.1 every 4 hours for 24 hours, • (c) (Group 4.3): administration of sucralose at a dose less than or equivalent to 100 mg per person every 4 hours for 24 hours, • (d) (Group 4.4): administration of double dose of sucralose of Group 4.3 every 4 hours for 24 hours, • (e) (Group 4.5): administration of a combination of 0.5 times the dose of mannitol as in Group 4.1 and 0.5 times the dose of sucralose as in Group 4.3 per kilogram of body weight every 4 hours for 24 hours, • (f) (Group 4.6): administration of a combination of the dose of mannitol as in Group 4.1 and the dose of sucralose as in Group 4.3 every 4 hours for 24 hours, • (g) (Group 4.7): administration of a combination of 1.5 times the dose of mannitol as in Group 4.1 and 1.5 times the dose of sucralose as in Group 4.3 every 4 hours for 24 hours, • (h) (Group 4.8): administration of a combination of double dose of mannitol as in Group 4.1 and double dose of sucralose as in Group 4.3 every 4 hours for 24 hours, and • (i) (Group 4.9): first administration of 140 mg of NAC per kilogram of body weight and later administration of a combination of 70 mg of NAC plus double dose of mannitol as in Group 4.1 and double dose of sucralose as in Group 4.3 every 4 hours for five times.
After the 24-hour treatment period, blood was collected from the tail artery of the rats for AST/SLT assays. Subsequently, rats were subjected to GSP tests. Finally, rats were sacrificed and histological analysis was performed.
After completion of the treatments, rats were sacrificed under ether anesthesia, and blood was collected from the tail artery of the rats and placed in a test tube containing EDTA. The plasma was centrifuged at 13,000 at 4° C. for 15 minutes and the isolated plasma was transferred to Eppendorf tubes in aliquots and stored at −80° C.
Liver damage is quantified by measuring plasma AST and ALT activity. AST and ALT are common indicators of hepatotoxicity and are measured by using the Synchron LXi 725 system (Beckman Instruments, U.S.).
Following scarification of the rats, histological analysis was performed.

[2] = dose less than or equivalent to 100 mg per person (mannitol, sucralose: × 6)
[3] = dose less than or equivalent to 100 mg per person (mannitol, sucralose: × 6), Day 14
[4] = double dose of Group 4.1 / Group 4.3, × 6
[5] = double dose of Group 4.1 / Group 4.3, × 6, Day 14

Chain of CYP2E1 (P05181 whole entry): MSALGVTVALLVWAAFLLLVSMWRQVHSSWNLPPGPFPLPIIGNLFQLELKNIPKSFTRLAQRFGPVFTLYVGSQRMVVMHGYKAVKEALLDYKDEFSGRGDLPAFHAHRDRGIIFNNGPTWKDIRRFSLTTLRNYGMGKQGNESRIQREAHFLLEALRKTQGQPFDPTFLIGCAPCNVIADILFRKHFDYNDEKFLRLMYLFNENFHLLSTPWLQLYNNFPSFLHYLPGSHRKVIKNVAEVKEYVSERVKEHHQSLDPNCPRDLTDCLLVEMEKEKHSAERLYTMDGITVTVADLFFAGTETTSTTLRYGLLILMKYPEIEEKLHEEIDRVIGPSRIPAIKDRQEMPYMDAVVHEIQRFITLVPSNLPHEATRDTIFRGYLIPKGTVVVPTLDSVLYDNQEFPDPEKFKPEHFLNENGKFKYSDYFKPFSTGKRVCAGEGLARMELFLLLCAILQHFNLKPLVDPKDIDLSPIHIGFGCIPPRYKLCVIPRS

SMILES	P450 2E1 inhibitor activity (CYP2E1)	CYP 2E1 inhibition ratio (%) (CYP2E1; 1 μg/mL)	CYP 2E1 inhibition ratio (%) (CYP2E1; 2 μg/mL)	CYP 2E1 inhibition ratio (%) (CYP2E1; 4 μg/mL)	effect on APAP-induced liver injuries and survival rate [1]	histological analysis of liver tissue, H&E [1]	ALT [1, 2] [IU/L]	AST [1, 2] [IU/L]	GSP [1, 2] [mg/L]	Total HAI score [1, 2]	Survival (Day 14, n/n) [1, 3]	ALT [1, 4] [IU/L]	AST [1, 4] [IU/L]	GSP [1, 4] [mg/L]	Total HAI score [1, 4]	Survival (Day 14, n/n) [1, 5]
OC[C@@H](O)[C@@H](O)[C@H](O)[C@H](O)CO [Mannitol]	effective as P450 2E1 inhibitors	30.1 ± 2.4	34.1 ± 4.1	40.3 ± 1.6	liver injuries and survival rate can be improved	hepatocytes are relatively intact with visible nucleus and less vacuolization	209 ± 16	455 ± 78	565 ± 177	4.0 ± 0.0	1/3	166 ± 15	300 ± 40	354 ± 56	4.0 ± 1.0	3/3
OC[C@H]1O[C@H](O[C@]2(CCl)O[C@H](CCl)[C@@H](O)[C@@H]2O)[C@H](O)[C@@H](O)[C@H]1Cl [Sucralose]	effective as P450 2E1 inhibitors	25.1 ± 1.4	30.2 ± 2.8	32.9 ± 4.6	liver injuries and survival rate can be improved	hepatocytes are relatively intact with visible nucleus and less vacuolization	154 ± 49	331 ± 41	332 ± 42	4.0 ± 1.0	3/3	136 ± 48	277 ± 78	309 ± 54	3.0 ± 1.0	3/3

— patent US20240335404A1, “SUBSTITUTED ESTERS CONTAINING POLYOLS AND SACCHARIDES FOR TREATING HEPATOTOXICITY AND FATTY LIVER DISEASES” (SINEW PHARMA INC., priority 2015, published 2024)
